This is an account of results in patent US20120172392A1, “AMINE-BASED AND AMIDE-BASED INHIBITORS OF SEMICARBAZIDE-SENSITIVE AMINE OXIDASE (SSAO) ENZYME ACTIVITY AND VAP-1 MEDIATED ADHESION USEFUL FOR TREATMENT OF DISEASES” (priority 2004, published 2012).

Structures can show the parent of a compound that is named as a salt.

Series [1] concerns the target T1, SSAO (Rattus norvegicus, UniProt O08590).
T1 construct: SSAO activity in 100 ul of lung homogenate was determined radiochemically; from tissue; host or cells: rat lung homogenate (1000 g supernatant)
T1 sequence (O08590 1-763): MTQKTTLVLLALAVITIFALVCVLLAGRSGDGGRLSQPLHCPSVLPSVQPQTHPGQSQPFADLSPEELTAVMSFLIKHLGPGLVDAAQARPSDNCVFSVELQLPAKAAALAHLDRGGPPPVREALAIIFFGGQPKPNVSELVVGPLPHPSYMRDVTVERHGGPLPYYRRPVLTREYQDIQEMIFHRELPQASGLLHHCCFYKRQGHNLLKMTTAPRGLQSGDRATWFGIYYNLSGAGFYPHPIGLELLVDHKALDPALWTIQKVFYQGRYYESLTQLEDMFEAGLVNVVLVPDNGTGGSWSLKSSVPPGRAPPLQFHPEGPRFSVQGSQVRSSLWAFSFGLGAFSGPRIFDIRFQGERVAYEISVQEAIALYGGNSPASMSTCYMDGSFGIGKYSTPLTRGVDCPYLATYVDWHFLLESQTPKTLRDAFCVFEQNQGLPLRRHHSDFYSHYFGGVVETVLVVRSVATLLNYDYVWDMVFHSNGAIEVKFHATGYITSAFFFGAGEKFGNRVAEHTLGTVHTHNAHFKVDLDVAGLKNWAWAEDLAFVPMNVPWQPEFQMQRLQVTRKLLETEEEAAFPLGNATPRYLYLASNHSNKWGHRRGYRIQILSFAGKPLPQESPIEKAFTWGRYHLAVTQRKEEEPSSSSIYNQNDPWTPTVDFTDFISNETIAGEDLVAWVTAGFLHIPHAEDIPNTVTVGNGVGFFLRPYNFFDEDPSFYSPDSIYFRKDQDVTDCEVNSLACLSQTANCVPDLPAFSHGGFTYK
Nature of the series: In vitro inhibition of SSAO activity, radiolabeled benzylamine procedure (rat lung homogenate). The format is biochemical.

Series [2] concerns C57BL/6 mice. The series can be described thus: Experimental autoimmune encephalomyelitis (EAE) in mice. The settings on record: for EAE development after stopping treatment: after last treatment (d19-25). It counts as in vivo. As to the method:
Thirty female C57BL/6 mice were immunized subcutaneously (s,c) with myelin oligodendrocyte glycoprotein 35-55 (MOG peptide 35-55) in Complete Freund Adjuvant (CFA) on day 0, followed by i.p. injections of pertussis toxin (one pertussis toxin injection on day 0, a second pertussis toxin injection on day 2). Groups of 10 mice received either the allylamine Compound mofegiline (M1, 10 mg/kg/dose, twice daily for 18 consecutive days), methotrexate (MTX, 2.5 mg/kg/day, every other day (Mon., Weds., Fri.) till day 18) or vehicle control (twice/day for 18 consecutive days) all starting from one day after the immunization and all administered i.p. Then animals were monitored for body weight, signs of paralysis and death according to a 0-5 scale of scoring system as follows; 1=limp tail or waddling gait with tail tonicity; 2=waddling gait with limp tail (ataxia); 2.5=ataxia with partial limb paralysis; 3=full paralysis of one limb; 3.5=full paralysis of one limb with partial paralysis of second limb; 4=full paralysis of two limbs; 4.5=moribund; 5=death. Results are shown in FIG. 1A, FIG. 1B, and FIG. 1C. […] (p=0.04 by repeated measure analysis to assess the treatment effect. Proper polynomial transformation, with the spacing corresponding to the collection days, was applied to test the time effect). Statistically significant differences in diseases severity between the M1 and vehicle-treated groups, continued even after stopping compound administration and were observed until the end of the study (d25).

The target of series [3] is T1, SSAO. The series can be described thus: In vitro inhibition of SSAO activity, radiolabeled benzylamine procedure (rat lung homogenate). It counts as biochemical. Here is the method: SSAO activity was also measured as described (Lizcano J M. Et al. (1998) Biochem J. 331:69). Briefly, rat lung homogenates were prepared by chopping the freshly removed tissue into small pieces and washing them thoroughly in PBS. The tissue was then homogenized 1:10 (w/v) in 10 mM potassium phosphate buffer (pH 7.8) and centrifuged at 1000 g at 4° C. for 10 minutes; the supernatant was kept frozen until ready to use. SSAO activity in 100 ul of lung homogenate was determined radiochemically using 20 uM ^14C-benzylamine as substrate. The reaction was carried out at 37° C. in a final volume of 300 ul of 50 mM potassium phosphate buffer (pH 7.2) and stopped with 100 ul of 2 M citric acid. Radioactively labeled products were extracted into; toluene/ethyl acetate (1:1, v/v) containing 0.6% (w/v) 2,5-diphenyloxdazole (PPO) before liquid scintillation counting.

Series [4] has as its target T2, human MAO-B (Homo sapiens, UniProt P27338).
T2 construct: purchased BD Biosciences (MA, USA)
T2 sequence (P27338 1-520): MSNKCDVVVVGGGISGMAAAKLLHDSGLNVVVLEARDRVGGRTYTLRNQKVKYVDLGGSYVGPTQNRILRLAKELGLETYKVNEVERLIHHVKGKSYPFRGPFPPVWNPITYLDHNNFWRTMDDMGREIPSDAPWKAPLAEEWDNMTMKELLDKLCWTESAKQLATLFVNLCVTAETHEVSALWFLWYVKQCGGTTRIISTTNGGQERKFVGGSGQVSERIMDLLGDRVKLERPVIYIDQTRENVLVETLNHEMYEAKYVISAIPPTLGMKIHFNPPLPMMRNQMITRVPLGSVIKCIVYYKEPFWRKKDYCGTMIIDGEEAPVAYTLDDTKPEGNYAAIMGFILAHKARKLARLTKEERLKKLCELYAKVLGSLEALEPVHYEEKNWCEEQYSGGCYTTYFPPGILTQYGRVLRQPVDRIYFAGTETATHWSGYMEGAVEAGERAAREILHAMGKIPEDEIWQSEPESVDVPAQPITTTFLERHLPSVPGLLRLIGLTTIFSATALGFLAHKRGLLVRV
Nature of the series: Inhibition of MAO-B activity, coupled colorimetric assay. The format is biochemical. Conditions: recombinant human MAO-B, benzylamine substrate. Here is the method: (§1) The specificity of the different SSAO inhibitors was tested by determining their ability to inhibit MAO-A and MAO-B activities in vitro. Recombinant human MAO-A and human MAO-B enzymes were obtained from BD Biosciences (MA, USA). MAO activities were measured in a similar way as for SSAO except that no pre-incubation with inhibitor or substrate was performed. A pre-determined amount of inhibitor diluted in 0.2 M potassium phosphate buffer, pH 7.6, was added to each well, if required. The amount of inhibitor varied in each assay but was generally at a final concentration of between 50 nM and 1 mM. Controls lacked inhibitor. The following agents were then added to a final reaction volume of 200 μl in 0.2 M potassium phosphate buffer, pH 7.6: 0.04 mg/ml of MAO-A or 0.07 mg/ml MAO-B enzyme, 15 μl of 10 mM tyramine substrate (for MAO-A), or 15 μl 100 mM benzylamine substrate (for MAO-B), and 50 μl of freshly made chromogenic solution (as above). The plates were incubated for 60 min at 37° C. The increase in absorbance, reflecting MAO activity, was measured at 490 nm using microplate spectrophotometer (Power Wave 40, Bio-Tek Inst.). Inhibition was determined as percent inhibition compared to control after correcting for background absorbance and IC50 values, and was calculated using. GraphPad Prism software. […]

For series [5], the target named is T3, human MAO-A (Homo sapiens, UniProt P21397).
T3 construct: purchased BD Biosciences (MA, USA)
T3 sequence (P21397 1-527): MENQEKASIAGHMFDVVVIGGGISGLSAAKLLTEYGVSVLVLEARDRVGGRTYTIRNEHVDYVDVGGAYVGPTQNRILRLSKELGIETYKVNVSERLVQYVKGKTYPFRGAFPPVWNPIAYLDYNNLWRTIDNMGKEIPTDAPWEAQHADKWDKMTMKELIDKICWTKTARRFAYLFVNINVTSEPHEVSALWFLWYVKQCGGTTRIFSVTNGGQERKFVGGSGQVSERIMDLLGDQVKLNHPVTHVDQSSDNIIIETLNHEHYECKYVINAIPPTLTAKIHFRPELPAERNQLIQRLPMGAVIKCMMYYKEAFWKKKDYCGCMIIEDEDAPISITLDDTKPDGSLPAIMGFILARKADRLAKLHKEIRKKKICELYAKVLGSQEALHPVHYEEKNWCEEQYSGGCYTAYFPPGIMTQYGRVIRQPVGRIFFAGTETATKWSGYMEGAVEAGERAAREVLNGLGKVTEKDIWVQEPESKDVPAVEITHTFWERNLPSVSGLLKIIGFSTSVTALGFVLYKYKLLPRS
Nature of the series: Inhibition of MAO-A activity, coupled colorimetric assay. The format is biochemical. The settings on record: recombinant human MAO-A, tyramine substrate. As to the method:
as §1

The mark [6] stands for this setting: Table I, compounds of formula X.
Where [7] appears, read: Table II, compounds of formula III.

On to `C#CC(N)CCCc1ccc(OC)cc1` (stereo not shown) (as salt: hydrochloride), for which the melting point is 175 °C (dec.).
With `NCC(=O)NCc1ccc(F)cc1` (as salt: hydrochloride) [LJP 1334, 2-amino-N-(4-fluorobenzyl)acetamide], the melting point fell in the range of 114 to 115 °C.
With `NCC(=O)NCc1cc(F)cc(C(F)(F)F)c1` (as salt: trifluoroacetate) [LJP 1383, 2-amino-N-(3-fluoro-5-trifluoromethylbenzyl)acetamide trifluoroacetate], the melting point lay in the range of 189.5 to 190.5 °C.
Same read-out and setting: for `NC/C=C(/Cc1ccccc1)C(F)(F)F` [Example 3, 3-benzyl-4,4,4-trifluoro-but-2-enylamine] the value was 170 °C (dec.); for `COc1ccc(CCCC(N)c2ccc(F)c(F)c2)cc1` (stereo not shown) [Example 3D, 1-(3,4-difluorophenyl)-4-(4-methoxyphenyl)-butylamine], 200 °C (dec.); for `C=CC(N)CCCc1ccccc1` (stereo not shown) [Example 3E, 1-(3-phenyl-propyl)-allylamine], 143 to 144 °C.
Still for that read-out and setting: the value for `NCC(=O)NCc1cccnc1` [LJP 1356, 2-amino-N-pyridin-3-ylmethylacetamide] was 87 to 88 °C.
`COc1cccc(CCC2=CCNC2)c1.Cl` [LJP 1368, 3-[2-(3-methoxyphenyl)ethyl]-3-pyrroline hydrochloride]: the “reversibility of inhibition of SSAO enzyme activity” value in series [1] is listed as “irreversible”.
Consider `CN(Cc1cnc2nc(N)nc(N)c2n1)c1ccc(C(=O)N[C@@H](CCC(=O)O)C(=O)O)cc1` [MTX, methotrexate], for which, in series [2], the “EAE development after stopping treatment” value is “a rise in disease incidence and severity was observed right after stopping the MTX treatment”.
Compound `NCC(=O)NCc1ccc(F)cc1` [compound 1334] had an IC50 in series [3] (setting [6]) of 2.4 µM.
On the same count and under the same terms, the value for `NCC(=O)NCc1cccnc1` [compound 1356] was 0.7 µM.
In turn, `Fc1cccc(CCC2=CCNC2)c1` [compound 1367] returned a half-maximal inhibitory concentration (IC50) in series [3] (setting [7]) of 2.4 µM.
As to `COc1cccc(CCC2=CCNC2)c1` [compound 1368], the values for the IC50 in series [4], in series [5] and in series [3] (setting [7]) were over 1000 µM, over 1000 µM and 0.5 µM, respectively.
On to `NCC(=O)NCc1cc(F)cc(C(F)(F)F)c1` [compound 1383], for which the melting point lay in the range of 189.5 to 190 °C. Moreover, in series [4], the 50% inhibitory concentration (IC50) was over 1300 µM. In series [5], the IC50 is over 1300 µM. The same compound gave an IC50 in series [3] (setting [6]) of 0.033 µM.
With `Fc1ccc(OCC2=CCCNC2)cc1` [compound 1395], in series [3] (Table II), the inhibition at 10 µM was 56%.
As for `COc1ccc(CCC2=CCNC2)cc1` [compound 1396], 2.1 µM corresponded to half-maximal inhibition in series [3] (setting [7]) (IC50).
In series [3] (Table II), `COc1ccc(OCC2=CCCNC2)cc1OC` [compound 1397] returned an inhibition at 9 µM of 54%.
The compound `Fc1cccc(OCC2=CCCNC2)c1` [compound 1398] gave an inhibition at 10 µM in series [3] (Table II) of 61%.
As for `COc1cccc(OCC2=CCCNC2)c1` [compound 1401], the inhibition at 10 µM in series [3] (Table II) came out at 74%.
`Fc1ccc(CCC2=CCNC2)cc1` [compound 1402] returned an IC50 in series [3] (setting [7]) of 1.83 µM.
`COc1ccc(OCC2=CCCNC2)cc1` [compound 1404] came in with an inhibition at 10 µM in series [3] (Table II) of 63%.
Compound `COc1ccc(CCC2=CCNC2)cc1OC` [compound 1427] gave an inhibition at 9 µM in series [3] (Table II) of 50%.
For `NC/C(=C/F)CCc1ccc(F)cc1` [mofegiline], the “EAE development after stopping treatment” value in series [2] is recorded as “continuously observed for at least one more week after the last treatment”. In series [2] (dosing period d0-18, i.p., mofegiline 10 mg/kg/dose twice daily, MTX 2.5 mg/kg/day every other day), the “disease (clinical) severity, EAE development” value is reported as “statistically significant reduction of disease seventy”. Moreover, the “disease incidence (mice affected)” value in series [2] (dosing period up to day 18, 10 mg/kg/dose i.p. twice daily) is 50%. In addition, the body weight result in series [2] (dosing period, 10 mg/kg/dose i.p. twice daily) was “prevented body weight loss”.

Usually melting point stands for the temperature of the solid-liquid transition. By IC50 is commonly meant the midpoint of a concentration-inhibition curve. As a reminder, the inhibition is the change of the read-out against control, counted positive when it falls. Read a high inhibition as a strong effect.
